Experiments:
CCND1 = experiment: In vitro transcription-translation (IVTT) reporter assay, CCND1 test sequence; assay type: biochemical; conditions: HeLa S3 lysate, sfGFP/mCherry ratio, 2 hrs at 30° C.
Description: (§1) All reporter constructs have been cloned into the pT7CFE1-CHis plasmid (ThermoFisher #88860) using Gibson assembly procedures (NEB #E2611L). The parental pT7CFE1-CHis plasmid contains an EMCV IRES at the 5′UTR for translation initiation, a multiple-cloning site (MCS) for gene insertion, an optional C-terminal His-epitope tag, and polyA sequence in the 3′UTR to regulate mRNA stability. All reporters are designed to be inserted at the MCS to include a red fluorescent protein (mCherry), P2A self-cleaving peptide which releases the preceding mCherry protein product, and a fusion open reading frame containing a 3×FLAG epitope, a peptide sequence of interest (TEST), and green fluorescent protein (sfGFP).
(§2) Construct Plasmid Preparation: All plasmids are isolated from MACH1 cells (ThermoFisher) grown overnight in ampicillin-containing luria broth, and purified using ZymoPure Express Plasmid Midiprep Kit (Zymo Research). Constructs are sequenced verified and diluted to a working concentration of 110 ng/μL.
(§3) HeLa S3 Lysate Preparation: HeLa S3 cell pellets are acquired from Ipracell/Ipratech (Belgium) and shipped as 4 mL frozen cell pellets on dry ice for storage at −80° C. until use. The procedure for lysate preparation is as follows. Prepare 1× Lysis Buffer, cold and stored on ice:
(§4) Each preparation takes 8 cell pellets (4 ml packed volume each, approximately 1.0×10^9 cells per pellet). Thaw cell pellets from −80° C. on ice for 90 mins. Lay pellets horizontally on top of the ice and rotate every 30 mins to ensure even thawing. Once thawed, add 4 mL of cold lysis buffer to each pellet, and using a serological pipet, gently pipet up and down to break up clumps. Incubate resuspended cells in ice for an additional 30 mins (plunged into ice). During 30 min incubation, rinse and RNase-zap (Ambion) glass dounces (use loose pestle “A”), gently dry and place on ice until needed. Prepare RNase-free Eppendorf tubes for spinning and for batch storage. Add batch labels to 1.5-1.7 mL RNase-free microcentrifuge tubes (labeling scheme below). Each batch will have an extra 1.5-1.7 mL RNase-free microcentrifuge tube for 40 μL of lysate, label the top of this tube (labeling scheme below). After 30 min incubation, transfer all 8 mL of cell pellet to dounce. Cell lysis is complete after douncing 100 times. Aliquot cell lysis into 1.5-1.7 mL temporary-microcentrifuge tubes. Place tubes in centrifuge with “fins” out, and spin at 1,200 xg for 5 mins. After the first spin use a 1 mL pipet to resuspend each tube and repeat spin. This acts as an additional lysis step, is more vigorous and increases lysate yield. During second spin get liquid N2 and a fresh conical tube on ice.
(§5) After spin is complete, transfer supernatant (lysate) from microcentrifuge tubes into the 50 mL conical tube and keep on ice. Repeat steps 10-14 for all other cell pellets until completed. Once all cell lysate has been transferred to the 50 mL conical tube pipet to mix so the solution is homogenous. Transfer 1 mL of lysate into batch-labeled microcentrifuge tubes and flash freeze in liquid nitrogen. Be sure to pipet up and down to mix throughout transfer step. Place all tubes in the […] for long-term storage.
(§6) In vitro transcription-translation assay setup: Each assay includes a master mix containing lysate and shared components, a 96-well plate containing compound titrations for testing, a 96-well DNA plate with reporter constructs to be tested, 96-well skirted PCR plates, and 96-well flat-bottom, black, fluorescent assay plates. […]

MYC = experiment: In vitro transcription-translation (IVTT) reporter assay, MYC test sequence; assay type: biochemical; conditions: HeLa S3 lysate, sfGFP/mCherry ratio, 2 hrs at 30° C.
Procedure, shortened: (§7)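 Coupled transcription-translation in HeLa S3 lysate with reporter plasmids encoding mCherry-P2A-3×FLAG-TEST-sfGFP behind an EMCV IRES. Compounds were half-log titrated (30 μM-0.1 μM in DMSO dilution plate) into master mix, then DNA was added. Reactions ran 2 hrs at 30° C, were PBS-quenched and read for fluorescence.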

BCL-2 = experiment: In vitro transcription-translation (IVTT) reporter assay, BCL-2 test sequence; assay type: biochemical; conditions: HeLa S3 lysate, sfGFP/mCherry ratio, 2 hrs at 30° C.
Description: as §1, §2, §3, §4, §5, §6

MCL-1 = experiment: In vitro transcription-translation (IVTT) reporter assay, MCL-1 test sequence; assay type: biochemical; conditions: HeLa S3 lysate, sfGFP/mCherry ratio, 2 hrs at 30° C.
Description: as §1, §2, §3, §4, §5, §6

HEPG2 = experiment: Cell viability (CellTiter-Fluor), HEPG2; assay type: cell-based; conditions: Homo sapiens, HEPG2, 24-72 hrs
Method: (§8) Count and dispense 2,000-10,000 cells per well (100 μL volume) in black 96-well tissue culture microplate and let cells adhere overnight. Add compound dissolved in 100% DMSO to each well as needed and incubate cells in standard culture conditions for 24-72 hrs. Final DMSO concentration in each well should be 0.1-0.5%. At the desired time point, gently aspirate compound containing media and replace with PBS to wash. Repeat wash step for 2 total washes. Remove PBS and add 100 μL CellTiter-Fluor reagent (Promega) reagent to each well. Seal plate and incubate 1 hr at room temperature with orbital shaking. Analyze fluorescence using plate reader to quantify viable cells compared with vehicle (DMSO) control.

HCC38 = experiment: Cell viability (CellTiter-Fluor), HCC38; assay type: cell-based; conditions: Homo sapiens, HCC38, 24-72 hrs
Method: as §8

KLE = experiment: Cell viability (CellTiter-Fluor), KLE; assay type: cell-based; conditions: Homo sapiens, 24-72 hrs
Method: as §8

HEK 293T = experiment: Cell viability (CellTiter-Fluor), HEK 293T; assay type: cell-based; conditions: Homo sapiens, 24-72 hrs
Method: as §8

KATO-III = experiment: Cell viability (CellTiter-Fluor), KATO-III; assay type: cell-based; conditions: Homo sapiens, 24-72 hrs
Method: as §8

LS411N = experiment: Cell viability (CellTiter-Fluor), LS411N; assay type: cell-based; conditions: Homo sapiens, LS-411N, 24-72 hrs
Method: as §8

NCI-H1915 = experiment: Cell viability (CellTiter-Fluor), NCI-H1915; assay type: cell-based; conditions: NCI-H1915, 24-72 hrs
Method: as §8

MCF7 = experiment: Cell viability (CellTiter-Fluor), MCF7; assay type: cell-based; conditions: Homo sapiens, MCF7, 24-72 hrs
Method: as §8

ALK = experiment: In vitro transcription-translation (IVTT) reporter assay, ALK test sequence; assay type: biochemical; conditions: HeLa S3 lysate, sfGFP/mCherry ratio, 2 hrs at 30° C.
Procedure, shortened: as §7

MS751 = experiment: Cell viability (CellTiter-Fluor), MS751; assay type: cell-based; conditions: MS751, 24-72 hrs
Method: as §8

KRAS G12D = experiment: In vitro transcription-translation (IVTT) reporter assay, KRAS G12D test sequence; assay type: biochemical; conditions: HeLa S3 lysate, sfGFP/mCherry ratio, 2 hrs at 30° C.
Procedure, shortened: as §7

T47D = experiment: Cell viability (CellTiter-Fluor), T47D; assay type: cell-based; conditions: Homo sapiens, 24-72 hrs
Method: as §8

HPAF-II = experiment: Cell viability (CellTiter-Fluor), HPAF-II; assay type: cell-based; conditions: Homo sapiens, 24-72 hrs
Method: as §8

Structure (SMILES) | IC50 (CCND1) [µM] | IC50 (MYC) [µM] | IC50 (BCL-2) [µM] | IC50 (MCL-1) [µM] | IC50 (HEPG2) [µM] | IC50 (HCC38) [µM] | IC50 (NCI-H1915) [µM] | IC50 (MCF7) [µM] | IC50 (ALK) [µM] | IC50 (KRAS G12D) [µM] | IC50 (T47D) [µM] | IC50 (KLE) [µM] | IC50 (HEK 293T) [µM] | IC50 (KATO-III) [µM] | IC50 (LS411N) [µM] | IC50 (MS751) [µM] | IC50 (HPAF-II) [µM]
CC(=O)O[C@@H]1[C@@H](O)CN[C@@H]1Cc1ccc(-c2cn(-c3ccc(C(F)(F)F)cc3)nn2)cc1 [V187840] | < 10 | < 10 | < 10 | < 10 |  |  |  |  |  |  |  |  |  |  |  |  | 
COc1ccc(C[C@H]2NC[C@H](O)[C@H]2OC(C)=O)cc1I [V188005] | > 30 | > 30 | > 30 | > 30 |  |  |  |  |  |  |  |  |  |  |  |  | 
COc1ccc(C[C@H]2NC[C@H](O)[C@H]2OC(=O)Cc2ccc(Cl)cc2)cc1 [V187055, (2R,3S,4S)-4-hydroxy-2-[(4-methoxyphenyl)methyl]pyrrolidin-3-yl 2-(4-chlorophenyl)acetate; trifluoroacetic acid] | < 10 | < 10 |  | < 10 |  |  |  |  |  | < 10 |  |  |  |  |  |  | 
COc1ccc(CC2NCC(O)C2OC(=O)CC2CC2(F)F)cc1 [V187061, 2R,3S,4S)-4-hydroxy-2-[(4-methoxyphenyl)methyl]pyrrolidin-3-yl 2-(2,2-difluorocyclopropyl)acetate] |  | < 10 |  |  |  | 0.25 to 1 | 0.25 to 1 | 0.25 to 1 | < 10 | < 10 | 0.25 to 1 | 0.25 to 1 | < 0.25 | 1 to 4 | < 0.25 | < 0.25 | 0.25 to 1

Now from value to compound, other results behind:

IC50 (CCND1) [µM] | IC50 (MYC) [µM] | IC50 (BCL-2) [µM] | IC50 (MCL-1) [µM] | IC50 (HEPG2) [µM] | IC50 (HCC38) [µM] | IC50 (NCI-H1915) [µM] | IC50 (MCF7) [µM] | IC50 (ALK) [µM] | IC50 (KRAS G12D) [µM] | IC50 (T47D) [µM] | Structure (SMILES) | IC50 (KLE) [µM] | IC50 (HEK 293T) [µM] | IC50 (KATO-III) [µM] | IC50 (LS411N) [µM] | IC50 (MS751) [µM] | IC50 (HPAF-II) [µM]
< 10 | < 10 | < 10 | < 10 | 0.25 to 1 | 1 to 4 | ≥ 4 | 0.25 to 1 | < 10 | < 10 | 1 to 4 | COc1ccc(C[C@H]2NC[C@H](O)[C@H]2OC(=O)C[C@@H]2CCNC2)cc1 [V187690] | 1 to 4 | 0.25 to 1 | 1 to 4 | 0.25 to 1 | 0.25 to 1 | ≥ 4
< 10 | < 10 | < 10 | < 10 |  |  |  |  |  |  |  | CC(=O)O[C@@H]1[C@@H](O)CN[C@@H]1Cc1ccc(-c2cn(-c3cccnc3)nn2)cc1 [V187751] |  |  |  |  |  | 
< 10 | < 10 |  | < 10 |  |  |  |  |  | < 10 |  | COc1ccc(C[C@H]2NC[C@H](O)[C@H]2OC(=O)Cc2cc(Br)cs2)cc1 [V187070, (2R,3S,4S)-4-hydroxy-2-[(4-methoxyphenyl)methyl]pyrrolidin-3-yl 2-(4-bromothiophen-2-yl)acetate] |  |  |  |  |  | 
< 10 | < 10 | < 10 | < 10 |  |  |  |  |  |  |  | CC(=O)O[C@@H]1[C@@H](O)CN[C@@H]1Cc1ccc(-c2cn(Cc3cn[nH]c3)nn2)cc1 [V187844] |  |  |  |  |  | 
< 10 | < 10 | < 10 | < 10 |  |  |  |  |  |  |  | CC(=O)O[C@@H]1[C@@H](O)CN[C@@H]1Cc1ccc(-c2cn(-c3ccc(Cl)cc3)nn2)cc1 [V187839] |  |  |  |  |  | 

Reference: patent US20250091989A1, “SMALL MOLECULE PROTEIN SYNTHESIS MODULATORS” (Interdict Bio, Inc., priority 2023, published 2025)
